Source: patent US11312719B2, “9-substituted amino triazolo quinazoline derivatives as adenosine receptor antagonists, pharmaceutical compositions and their use” (Merck Sharp & Dohme Corp., priority 2018, dated 2022)

Key:
[1] = molecular target: human A2a adenosine receptor (Homo sapiens (Human), UniProt P29274); assay: A2a receptor affinity radioligand binding assay ([3H] SCH58261); conditions: for IC50: membranes from HEK293 or CHO cells expressing human A2a receptor
Experimental: The A2a receptor affinity binding assay measured the amount of binding of a tritiated ligand with high affinity for the A2a adenosine receptor to membranes made from HEK293 or CHO cells recombinantly expressing the human A2a adenosine receptor, in the presence of varying concentrations of a compound of the invention.
Measurement of A2a Binding Affinity Using Radioligand Binding
148 μL (5 μg/mL) membranes (Perkin Elmer, Cat. No. RBHA2aM400UA) and 2 μL compounds of the invention to be tested (test compound) were transferred to individual wells of a 96-well polypropylene assay plate and incubated for 15 to 30 minutes at room temperature. [^3H] SCH58261 ((7-(2-phenylethyl)-5-amino-2-(2-furyl)-pyrazolo-[4,3-e]-1,2,4-triazolo[1,5-c]pyrimidine)) was diluted in assay buffer (50 mM Tris pH 7.4, 10 mM MgCl2, 0.005% Tween20) to a concentration of 4 nM and 50 μL transferred to each well of the assay plate. To define total and non-specific binding, wells containing 1% DMSO and 1 μM ZM241385 (Tocris Bioscience, Cat. No. 1036) respectively, were also included. The assay plate was incubated at room temperature for 60 minutes with agitation. Using a FilterMate Harvester® (Perkin Elmer), the contents of the assay plate were filtered through a UniFilter-96® PEI coated plate (Perkin Elmer Cat. No. 6005274 or 6005277). Filtering was achieved by aspirating the contents of the assay plate for 5 seconds, then washing and aspirating the contents three times with ice-cooled wash buffer (50 mM Tris-HCl pH 7.4, 150 mM NaCl) and allowing the vacuum manifold to dry the plate for 30 seconds. The filter plate was incubated for at least 1 hour at 55° C., and allowed to dry. The bottom of the filter plate was sealed with backing tape. 40 μL Ultima Gold™ (Perkin Elmer, Cat. No. 6013329) was added to each well of the filter plate and the top of the plate was sealed with TopSeal-A PLUS® clear plate seal (Perkin Elmer, Cat. No. 6050185). The plate was incubated for at least 20 minutes, and then the amount of radioactivity remaining in each well was determined using a TopCount® (Perkin Elmer) scintillation counter. After normalization to total and non-specific binding, the percent effect at each compound concentration was calculated. The plot of percent effect versus the log of compound concentration was analyzed electronically using a 4-parameter logistic fit based on the Levenberg-Marquardt algorithm to generate IC50 values.

[2] = molecular target: human A2b adenosine receptor (Homo sapiens (Human), UniProt P29275); assay: A2b radioligand filtration binding assay; conditions: membranes from HEK293 cells expressing human A2b receptor
Experimental: Measurement of A2b Binding Affinity
The reported affinity of the compounds of the invention for the human A2b adenosine receptor was determined experimentally using a radioligand filtration binding assay. This assay measures the amount of binding of a tritiated proprietary A2b receptor antagonist, in the presence and absence of a compound of the invention, to membranes made from HEK293 cells recombinantly expressing the human A2b adenosine receptor (Perkin Elmer, Cat. No. ES-013-C).
148 μL (135 μg/mL) membranes and 2 μL test compounds were transferred to individual wells of a 96-well polypropylene assay plate and incubated for 15 to 30 minutes at room temperature with agitation. Tritiated radioligand was diluted to a concentration of 14 nM in assay buffer (phosphate buffered saline without Magnesium and Calcium, pH 7.4; GE Healthcare Life Sciences, Cat. No. SH30256.01) and then 50 μL of the solution were transferred to each well of the assay plate. To define total and non-specific binding, wells containing 1% DMSO and 20 μM N-ethylcarboxamidoadenosine (Tocris Bioscience, Cat. No. 1691) respectively, were also included. The wells of the assay plate were incubated at room temperature for 60 minutes with agitation, then filtered using a FilterMate Harvester® (Perkin Elmer) or similar equipment through a UniFilter-96® PEI coated plate (Perkin Elmer Cat. No. 6005274 or 6005277). Filtering was achieved by aspirating the contents of the assay plate for 5 seconds, then washing and aspirating the contents three times with ice-cooled wash buffer (assay buffer supplemented with 0.0025% Brij58) and allowing the vacuum manifold to dry the plate for 30 seconds. The filter plate was incubated for at least 1 hour at 55° C. and allowed to dry. The bottom of the filter plate was then sealed with backing tape. 40 μL Ultima Gold™ (Perkin Elmer, Cat. No. 6013329) was added to each well of the filter plate and the top of the plate was sealed with TopSeal-A PLUS® clear plate seal (Perkin Elmer, Cat. No. 6050185). The plates were then incubated for at least 20 minutes, and then the amount of radioactivity remaining in each well was determined using a TopCount® (Perkin Elmer) scintillation counter. After normalization to total and non-specific binding, the percent effect at each compound concentration was calculated. The plot of percent effect versus the log of compound concentration was analyzed electronically using a 4-parameter logistic fit based on the Levenberg-Marquardt algorithm to generate IC50 values.

Sequence of human A2a adenosine receptor (P29274 whole entry): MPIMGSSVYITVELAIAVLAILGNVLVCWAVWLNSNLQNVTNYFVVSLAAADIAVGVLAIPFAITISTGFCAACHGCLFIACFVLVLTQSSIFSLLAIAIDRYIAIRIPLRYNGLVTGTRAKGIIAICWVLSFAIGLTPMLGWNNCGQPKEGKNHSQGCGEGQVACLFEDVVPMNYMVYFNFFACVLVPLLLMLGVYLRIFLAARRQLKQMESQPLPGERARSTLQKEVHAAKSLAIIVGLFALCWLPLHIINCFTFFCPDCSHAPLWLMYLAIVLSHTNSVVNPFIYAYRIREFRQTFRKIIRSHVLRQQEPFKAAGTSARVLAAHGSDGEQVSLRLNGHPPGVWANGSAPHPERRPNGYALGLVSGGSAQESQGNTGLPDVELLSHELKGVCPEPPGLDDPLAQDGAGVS
Sequence of human A2b adenosine receptor (P29275 whole entry): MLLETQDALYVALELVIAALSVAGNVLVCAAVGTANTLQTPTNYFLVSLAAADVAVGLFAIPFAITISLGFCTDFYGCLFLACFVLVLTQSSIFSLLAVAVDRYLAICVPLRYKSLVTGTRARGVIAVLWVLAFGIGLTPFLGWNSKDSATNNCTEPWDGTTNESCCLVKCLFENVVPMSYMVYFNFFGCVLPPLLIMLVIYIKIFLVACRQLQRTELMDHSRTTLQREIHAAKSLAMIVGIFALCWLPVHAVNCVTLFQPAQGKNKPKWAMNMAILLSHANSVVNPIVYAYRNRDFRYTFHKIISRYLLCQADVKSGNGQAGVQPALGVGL

Row | SMILES | IC50 [1] | IC50 [2] | A2A binding % Inh. @ 1000 nM ([1]; @ 1000 nM)
1 | COc1cc2nc(N)n3nc([C@@H]4CCCN(c5cn(CC(C)(C)O)nc5C5CC5)C4)nc3c2cc1F [Example 21, (R)-1-(4-(3-(5-amino-9-fluoro-8-methoxy-[1,2,4]triazolo[1,5-c]quinazolin-2-yl)piperidin-1-yl)-3-cyclopropyl-1H-pyrazol-1-yl)-2-methylpropan-2-ol] | 0.3 nM | 515 nM | –
2 | COc1cc2nc(N)n3nc([C@@H]4CCCN(c5cnn(CC(C)(C)O)c5C)C4)nc3c2cc1F [Example 8, (R)-1-(4-(3-(5-amino-9-fluoro-8-methoxy-[1,2,4]triazolo [1,5-c]quinazolin-2-yl)piperidin-l-yl)-5-methyl-1H-pyrazol-1-yl)-2-methylpropan-2-ol] | 4.5 nM | 149 nM | –
3 | COc1cc2nc(N)n3nc([C@H]4CN(c5cn(CC(C)(C)O)nc5C)CCO4)nc3c2cc1F [Example 140, (R)-1-(4-(2-(5-amino-9-fluoro-8-methoxy-[1,2,4]triazolo[1,5-c]quinazolin-2-yl)morpholino)-3-methyl-1H-pyrazol-1-yl)-2-methylpropan-2-ol] | 0.8 nM | 2720 nM | –
4 | COc1cc(F)cc2c1nc(N)n1nc(C3(F)CCCN(c4cnn(CC(C)(C)O)c4)C3)nc21 (single isomer, unassigned) [Example 134, (R or S)-1-(4-(3-(5-amino-9-fluoro-7-methoxy-[1,2,4]triazolo[1,5-c]quinazolin-2-yl)-3-fluoropiperidin-1-yl)-1H-pyrazol-1-yl)-2-methylpropan-2-ol] | 124 nM | 4290 nM | –
5 | COc1cc2nc(N)n3nc([C@@H]4CCCN(c5nc(C)n(CC(C)(C)O)n5)C4)nc3c2cc1F [Example 27, (R)-1-(3-(3-(5-amino-9-fluoro-8-methoxy-[1,2,4]triazolo[1,5-c]quinazolin-2-yl)piperidin-1-yl)-5-methyl-1H-1,2,4-triazol-1-yl)-2-methylpropan-2-ol] | 1.8 nM | 861 nM | –
6 | COc1cc2nc(N)n3nc([C@@H]4C[C@H](C)CN(c5cnn(CC(C)(C)O)c5)C4)nc3c2cc1F (single isomer, unassigned) [Example 90, 1-(4-((3R,5S or 3S,5R)-3-(5-amino-9-fluoro-8-methoxy-[1,2,4]triazolo[1,5-c]quinazolin-2-yl)-5-methylpiperidin-1-yl)-1H-pyrazol-1-yl)-2-methylpropan-2-ol] | 1.2 nM | 29 nM | –
7 | COc1cc2nc(N)n3nc(C4CCC(C)N(c5cnn(C6CCCC6O)c5)C4)nc3c2cc1F (single isomer, unassigned) [Example 89, (1S or 1R,2S or 2R)-2-(4-((2S,5R or 2R,5S)-5-(5-amino-9-fluoro-8-methoxy-[1,2,4]triazolo[1,5-c]quinazolin-2-yl)-2-methylpiperidin-1-yl)-1H-pyrazol-1-yl)cyclopentan-1-ol] | 0.2 nM | 3.4 nM | –
8 | COc1cc2nc(N)n3nc([C@H]4CN(c5cnn(CC(C)(C)O)c5C)CCO4)nc3c2cc1F [Example 141, (R)-1-(4-(2-(5-amino-9-fluoro-8-methoxy-[1,2,4]triazolo[1,5-c]quinazolin-2-yl)morpholino)-5-methyl-1H-pyrazol-1-yl)-2-methylpropan-2-ol] | 24.1 nM | 1760 nM | –
9 | COc1cc2nc(N)n3nc(C4CCC(C)N(c5cn(CC(C)(C)O)nc5C)C4)nc3c2cc1F [Example 53, 1-(4-((2R,5S, or 2S,5R)-5-(5-amino-9-fluoro-8-methoxy-[1,2,4]triazolo[1,5-c]quinazolin-2-yl)-2-methylpiperidin-1-yl)-3-methyl-1H-pyrazol-1-yl)-2-methylpropan-2-ol] | 44.1 nM | 4240 nM | –
10 | COc1cc2nc(N)n3nc(C4CN(c5cnn(CC(C)(C)O)c5)CCC4C)nc3c2cc1F (single isomer, unassigned) [Example 66, 1-(4-((3S or 3R,4S or 4R)-3-(5-amino-9-fluoro-8-methoxy-[1,2,4]triazolo[1,5-c]quinazolin-2-yl)-4-methylpiperidin-1-yl)-1H-pyrazol-1-yl)-2-methylpropan-2-ol] | 0.6 nM | 957 nM | –
11 | COc1cc2nc(N)n3nc(C4CN(c5cn(CC(C)(C)O)nc5C)CCS4(=O)=O)nc3c2cc1F (single isomer, unassigned) [Example 143, (S or R)-2-(5-amino-9-fluoro-8-methoxy-[1,2,4]triazolo[1,5-c]quinazolin-2-yl)-4-(1-(2-hydroxy-2-methylpropyl)-3-methyl-1H-pyrazol-4-yl)thiomorpholine 1,1-dioxide] | 984 nM | 7560 nM | –

Second part, the compound after the results:

Row | IC50 [1] | IC50 [2] | A2A binding % Inh. @ 1000 nM ([1]; @ 1000 nM) | SMILES
12 | 0.5 nM | 137 nM | – | Cn1cc(N2CCCC(c3nc4c5cc(F)cc(F)c5nc(N)n4n3)C2)cn1 (single isomer, unassigned) [Example 103, (R or S)-7,9-difluoro-2-(1-(1-methyl-1H-pyrazol-4-yl)piperidin-3-yl)-[1,2,4]triazolo[1,5-c]quinazolin-5-amine]
13 | 16 nM | 3140 nM | – | COc1cc(F)cc2c1nc(N)n1nc(C3CC(F)CN(c4cnn(CC5(O)CCC5)c4)C3)nc21 (single isomer, unassigned) [Example 79, 1-(4-((3S,5S or 3R,5R)-3-(5-amino-9-fluoro-7-methoxy-[1,2,4]triazolo[1,5-c]quinazolin-2-yl)-5-fluoropiperidin-1-yl)-1H-pyrazol-1-yl)methyl)cyclobutan-1-ol]
14 | – | 8470 nM | 36% Inh. | COc1ccc2nc(N)n3nc(C4CCCN(c5cnn(C)c5)C4)nc3c2c1 (single isomer, unassigned) [Example 108, (R or S)-9-methoxy-2-(1-(1-methyl-1H-pyrazol-4-yl)piperidin-3-yl)-[1,2,4]triazolo[1,5-c]quinazolin-5-amine]
15 | 3.3 nM | 1.6 nM | – | COc1cc2nc(N)n3nc([C@@H]4CCCN(c5cnn(CC(F)(F)F)c5)C4)nc3c2cc1F [Example 5, (R)-9-fluoro-8-methoxy-2-(1-(1-(2,2,2-trifluoroethyl)-1H-pyrazol-4-yl)piperidin-3-yl)[1,2,4]triazolo[1,5-c]quinazolin-5-amine]
16 | 0.9 nM | 153 nM | – | COc1cc(F)cc2c1nc(N)n1nc([C@@H]3C[C@@H](F)CN(c4cnn(CC(C)(C)O)c4)C3)nc21 (single isomer, unassigned) [Example 74, 1-(4-((3R,5R or 3S,5S)-3-(5-amino-9-fluoro-7-methoxy-[1,2,4]triazolo[1,5-c]quinazolin-2-yl)-5-fluoropiperidin-1-yl)-1H-pyrazol-1-yl)-2-methylpropan-2-ol]
17 | 3.7 nM | 9.4 nM | – | COc1cc2nc(N)n3nc([C@@H]4CCCN(c5cnn(C)c5)C4)nc3c2cc1F [Example 2, (R)-9-fluoro-8-methoxy-2-(1-(1-methyl-1H-pyrazol-4-yl)piperidin-3-yl)-[1,2,4]triazolo[1,5-c]quinazolin-5-amine]
